In publication doi:10.1101/2023.12.04.569845, “Identification of 4-(6-((2-methoxyphenyl)amino)pyrazin-2-yl)benzoic acids as CSNK2A inhibitors with antiviral activity and improved selectivity over PIM3” (bioRxiv, 2023):
Where two headings read alike, the source gives them in different places. Blank lines part the entries; values can stand above or below the compound they belong to.

How the values were obtained:
Assay in all cases: biochemical
Design in all cases: Thermal shift (DSF, SYPRO Orange) Tm shift of recombinant kinase domains at 10 uM compound
[1] = target: T1, MST3 (Homo sapiens, UniProt Q9Y6E0)
T1 construct: gene STK24
T1 sequence (Q9Y6E0 whole entry): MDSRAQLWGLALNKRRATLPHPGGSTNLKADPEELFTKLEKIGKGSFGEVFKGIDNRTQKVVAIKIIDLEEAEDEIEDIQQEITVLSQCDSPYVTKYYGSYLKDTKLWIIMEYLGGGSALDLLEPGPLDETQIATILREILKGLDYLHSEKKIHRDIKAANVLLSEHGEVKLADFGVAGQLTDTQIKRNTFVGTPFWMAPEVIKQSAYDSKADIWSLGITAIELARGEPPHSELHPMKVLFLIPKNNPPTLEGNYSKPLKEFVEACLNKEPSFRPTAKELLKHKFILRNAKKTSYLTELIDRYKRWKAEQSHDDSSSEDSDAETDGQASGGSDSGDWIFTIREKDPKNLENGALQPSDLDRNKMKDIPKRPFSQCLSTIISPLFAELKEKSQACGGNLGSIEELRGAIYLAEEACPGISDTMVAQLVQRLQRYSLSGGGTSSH

[2] = target: T2, NEK2 (Homo sapiens, UniProt P51955)
T2 sequence (P51955 1-445): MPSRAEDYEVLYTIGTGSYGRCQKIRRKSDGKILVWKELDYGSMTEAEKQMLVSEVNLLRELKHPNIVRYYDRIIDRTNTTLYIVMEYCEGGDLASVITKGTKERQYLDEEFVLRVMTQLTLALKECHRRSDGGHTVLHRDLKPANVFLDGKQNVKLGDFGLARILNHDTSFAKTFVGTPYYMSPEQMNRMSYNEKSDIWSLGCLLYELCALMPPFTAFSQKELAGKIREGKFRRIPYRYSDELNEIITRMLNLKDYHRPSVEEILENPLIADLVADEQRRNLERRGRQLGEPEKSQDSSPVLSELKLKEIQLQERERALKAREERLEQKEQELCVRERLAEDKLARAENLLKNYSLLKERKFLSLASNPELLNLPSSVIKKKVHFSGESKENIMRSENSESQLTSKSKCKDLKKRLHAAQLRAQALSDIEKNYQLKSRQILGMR

[3] = target: HIPK2 (Homo sapiens, UniProt Q9H2X6)
Sequence of HIPK2 (Q9H2X6 whole entry): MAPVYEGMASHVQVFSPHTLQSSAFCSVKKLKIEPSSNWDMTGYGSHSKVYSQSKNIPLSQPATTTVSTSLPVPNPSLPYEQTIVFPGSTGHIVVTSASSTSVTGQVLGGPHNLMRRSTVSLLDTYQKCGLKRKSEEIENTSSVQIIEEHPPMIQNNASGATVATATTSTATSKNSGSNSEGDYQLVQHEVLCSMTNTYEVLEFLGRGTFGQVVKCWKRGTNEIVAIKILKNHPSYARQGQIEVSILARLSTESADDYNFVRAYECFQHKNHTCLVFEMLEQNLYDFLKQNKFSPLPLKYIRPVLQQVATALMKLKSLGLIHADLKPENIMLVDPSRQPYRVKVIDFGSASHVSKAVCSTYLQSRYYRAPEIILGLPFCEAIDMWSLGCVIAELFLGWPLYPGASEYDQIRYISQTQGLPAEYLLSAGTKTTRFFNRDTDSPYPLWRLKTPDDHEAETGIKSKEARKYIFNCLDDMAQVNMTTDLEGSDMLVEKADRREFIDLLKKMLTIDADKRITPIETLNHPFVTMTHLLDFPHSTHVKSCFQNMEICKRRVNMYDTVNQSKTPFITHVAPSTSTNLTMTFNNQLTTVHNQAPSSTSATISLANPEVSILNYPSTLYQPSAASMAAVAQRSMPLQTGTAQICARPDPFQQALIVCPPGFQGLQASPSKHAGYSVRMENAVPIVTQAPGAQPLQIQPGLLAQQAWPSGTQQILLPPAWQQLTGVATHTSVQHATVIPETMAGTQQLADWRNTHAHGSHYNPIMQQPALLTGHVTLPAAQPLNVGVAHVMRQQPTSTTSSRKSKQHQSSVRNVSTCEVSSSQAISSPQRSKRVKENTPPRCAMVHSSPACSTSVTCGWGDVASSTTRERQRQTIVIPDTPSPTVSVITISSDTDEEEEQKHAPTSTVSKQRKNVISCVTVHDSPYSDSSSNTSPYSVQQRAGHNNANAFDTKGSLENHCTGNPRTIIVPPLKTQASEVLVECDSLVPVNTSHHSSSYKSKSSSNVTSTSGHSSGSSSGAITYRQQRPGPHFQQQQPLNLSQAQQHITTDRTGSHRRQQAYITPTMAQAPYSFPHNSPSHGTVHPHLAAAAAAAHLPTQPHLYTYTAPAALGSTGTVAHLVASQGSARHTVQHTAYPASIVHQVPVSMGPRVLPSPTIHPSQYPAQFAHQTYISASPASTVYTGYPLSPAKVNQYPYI

[4] = target: T3, DRAK1 (Homo sapiens, UniProt Q9UEE5)
T3 construct: gene STK17A
T3 sequence (Q9UEE5 1-414): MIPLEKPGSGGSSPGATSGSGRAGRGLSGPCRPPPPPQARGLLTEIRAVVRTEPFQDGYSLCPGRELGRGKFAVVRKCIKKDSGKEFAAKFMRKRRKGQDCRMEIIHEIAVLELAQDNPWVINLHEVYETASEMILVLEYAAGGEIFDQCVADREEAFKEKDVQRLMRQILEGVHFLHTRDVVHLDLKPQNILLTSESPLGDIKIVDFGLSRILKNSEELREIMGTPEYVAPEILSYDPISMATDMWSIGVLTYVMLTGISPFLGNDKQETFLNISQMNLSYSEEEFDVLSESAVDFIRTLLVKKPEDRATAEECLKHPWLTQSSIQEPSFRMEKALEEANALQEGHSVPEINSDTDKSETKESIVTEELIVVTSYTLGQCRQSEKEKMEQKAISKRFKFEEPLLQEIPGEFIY

[5] = target: T4, CSNK2a1 (Homo sapiens, UniProt P68400)
T4 construct: kinase domain
T4 sequence (P68400 whole entry, the tested form may be a part): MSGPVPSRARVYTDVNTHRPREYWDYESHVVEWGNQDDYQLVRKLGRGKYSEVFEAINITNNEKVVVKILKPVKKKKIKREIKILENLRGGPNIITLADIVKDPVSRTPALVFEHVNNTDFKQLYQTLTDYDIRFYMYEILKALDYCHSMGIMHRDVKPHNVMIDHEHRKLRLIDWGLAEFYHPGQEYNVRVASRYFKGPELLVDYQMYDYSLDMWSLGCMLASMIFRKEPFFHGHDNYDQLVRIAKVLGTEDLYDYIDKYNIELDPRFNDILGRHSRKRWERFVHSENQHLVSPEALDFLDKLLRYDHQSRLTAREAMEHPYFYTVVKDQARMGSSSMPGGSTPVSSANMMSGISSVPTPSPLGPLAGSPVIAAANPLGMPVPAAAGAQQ

[6] = target: CDK2 (Homo sapiens, UniProt P24941)
[7] = target: T5, MYT1 (Homo sapiens, UniProt Q99640)
T5 construct: gene PKMYT1
T5 sequence (Q99640 1-499): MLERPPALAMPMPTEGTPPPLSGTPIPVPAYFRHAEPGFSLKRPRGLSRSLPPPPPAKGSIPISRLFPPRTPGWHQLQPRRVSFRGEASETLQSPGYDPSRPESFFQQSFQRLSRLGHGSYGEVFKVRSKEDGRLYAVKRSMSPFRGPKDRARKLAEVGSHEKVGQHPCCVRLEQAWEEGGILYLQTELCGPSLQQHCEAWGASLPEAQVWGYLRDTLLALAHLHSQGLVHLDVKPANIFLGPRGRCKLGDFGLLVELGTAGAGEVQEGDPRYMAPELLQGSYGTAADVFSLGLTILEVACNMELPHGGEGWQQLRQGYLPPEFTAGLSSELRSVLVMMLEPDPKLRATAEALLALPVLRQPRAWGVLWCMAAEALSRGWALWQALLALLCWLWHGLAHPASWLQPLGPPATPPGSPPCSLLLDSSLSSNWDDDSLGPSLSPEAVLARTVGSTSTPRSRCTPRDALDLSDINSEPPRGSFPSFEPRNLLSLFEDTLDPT

[8] = target: T6, MARK4 (Homo sapiens, UniProt Q96L34)
T6 sequence (Q96L34 1-752): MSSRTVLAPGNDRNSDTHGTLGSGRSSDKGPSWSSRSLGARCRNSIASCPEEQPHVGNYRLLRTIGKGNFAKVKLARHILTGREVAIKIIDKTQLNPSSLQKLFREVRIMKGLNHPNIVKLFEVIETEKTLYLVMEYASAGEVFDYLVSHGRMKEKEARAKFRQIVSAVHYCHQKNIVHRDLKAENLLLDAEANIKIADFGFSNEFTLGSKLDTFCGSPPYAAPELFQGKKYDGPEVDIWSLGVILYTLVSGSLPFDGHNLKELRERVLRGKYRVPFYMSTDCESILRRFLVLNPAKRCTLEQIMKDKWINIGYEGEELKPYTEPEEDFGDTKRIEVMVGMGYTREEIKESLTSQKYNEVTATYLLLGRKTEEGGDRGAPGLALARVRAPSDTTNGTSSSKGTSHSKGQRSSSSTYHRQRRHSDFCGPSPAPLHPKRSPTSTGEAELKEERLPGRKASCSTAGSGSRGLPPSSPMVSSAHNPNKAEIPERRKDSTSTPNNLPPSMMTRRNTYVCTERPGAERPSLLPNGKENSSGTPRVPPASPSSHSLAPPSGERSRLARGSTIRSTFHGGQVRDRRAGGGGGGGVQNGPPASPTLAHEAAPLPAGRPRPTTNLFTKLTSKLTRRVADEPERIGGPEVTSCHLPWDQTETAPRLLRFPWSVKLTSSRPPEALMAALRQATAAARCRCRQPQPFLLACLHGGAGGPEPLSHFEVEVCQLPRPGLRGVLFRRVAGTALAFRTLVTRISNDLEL

[9] = target: PIM1 (Homo sapiens, UniProt P11309)
Sequence of PIM1 (P11309 whole entry): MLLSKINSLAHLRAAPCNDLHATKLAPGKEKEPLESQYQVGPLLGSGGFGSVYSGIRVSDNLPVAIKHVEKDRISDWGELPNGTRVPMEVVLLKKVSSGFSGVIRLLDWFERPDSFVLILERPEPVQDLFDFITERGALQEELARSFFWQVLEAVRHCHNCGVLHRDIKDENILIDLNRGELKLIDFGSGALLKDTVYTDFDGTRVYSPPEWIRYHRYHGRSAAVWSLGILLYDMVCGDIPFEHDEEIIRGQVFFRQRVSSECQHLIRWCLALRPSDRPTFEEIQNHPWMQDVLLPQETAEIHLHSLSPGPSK

- ΔTm at 10 µM ([1]; read-out: 7c): -3 °C
- ΔTm at 10 µM ([2]; read-out: 7c): -1 °C
- ΔTm at 10 µM ([3]; read-out: 7c): 7 °C
- ΔTm at 10 µM ([4]; read-out: 7c): 4 °C
- ΔTm at 10 µM ([5]; read-out: 7c): 15 °C
- ΔTm at 10 µM ([6]; read-out: 7c): 1 °C
- ΔTm at 10 µM ([7]; read-out: 7c): 0 °C
- ΔTm at 10 µM ([8]; read-out: 7c): 0 °C
- ΔTm at 10 µM ([9]; read-out: 7c): 9 °C
Compound: COc1ccc(OC(C)C)cc1Nc1cncc(-c2ccc(C(=O)O)cc2)n1 [7c]

- ΔTm at 10 µM ([1]; read-out: 6c): -3 °C
- ΔTm at 10 µM ([2]; read-out: 6c): -4 °C
- ΔTm at 10 µM ([3]; read-out: 6c): 9 °C
- ΔTm at 10 µM ([4]; read-out: 6c): 6 °C
- ΔTm at 10 µM ([5]; read-out: 6c): 15 °C
- ΔTm at 10 µM ([6]; read-out: 6c): 5 °C
- ΔTm at 10 µM ([7]; read-out: 6c): 0 °C
- ΔTm at 10 µM ([8]; read-out: 6c): 1 °C
- ΔTm at 10 µM ([9]; read-out: 6c): 10 °C
Compound: CC(C)Oc1ccc2ccn(-c3cncc(-c4ccc(C(=O)O)cc4)n3)c2c1 [6c]

- ΔTm at 10 µM ([1]; read-out: 2): 1 °C
- ΔTm at 10 µM ([2]; read-out: 2): -2 °C
- ΔTm at 10 µM ([4]; read-out: 2): 8 °C
- ΔTm at 10 µM ([7]; read-out: 2): 0 °C
- ΔTm at 10 µM ([8]; read-out: 2): 1 °C
Compound: CC(C)Nc1ccc2cnn(-c3cncc(-c4ccc(C(=O)O)cc4)n3)c2c1 [compound 2, 2]
